Read-outs that look alike come from different tables or passages of the source.
Key:
GBA2 [1] = biological target: T1, GBA2 (Homo sapiens, UniProt Q9HCG7); test: Fluorogenic substrate enzymatic assay, lysate of GBA/GBA2 KO HEK293T cells overexpressing GBA2; assay type: biochemical; conditions: for (Ratio) GBA2/GBA / GBA2/GBA ratio, 3 h: IC50 ratio; for increase in GBA:GBA2 selectivity window compared to the conduritol analogue (13 or 14): IC50 ratio GBA2/GBA
T1 construct: expressed in transfected cells; host or cells: HEK293T (GBA/GBA2 KO background for the fluorogenic assay; endogenous-GBA background with GBA2 and GBA3 overexpressed for ABPP and intact-cell assays)
T1 sequence (Q9HCG7 1-927): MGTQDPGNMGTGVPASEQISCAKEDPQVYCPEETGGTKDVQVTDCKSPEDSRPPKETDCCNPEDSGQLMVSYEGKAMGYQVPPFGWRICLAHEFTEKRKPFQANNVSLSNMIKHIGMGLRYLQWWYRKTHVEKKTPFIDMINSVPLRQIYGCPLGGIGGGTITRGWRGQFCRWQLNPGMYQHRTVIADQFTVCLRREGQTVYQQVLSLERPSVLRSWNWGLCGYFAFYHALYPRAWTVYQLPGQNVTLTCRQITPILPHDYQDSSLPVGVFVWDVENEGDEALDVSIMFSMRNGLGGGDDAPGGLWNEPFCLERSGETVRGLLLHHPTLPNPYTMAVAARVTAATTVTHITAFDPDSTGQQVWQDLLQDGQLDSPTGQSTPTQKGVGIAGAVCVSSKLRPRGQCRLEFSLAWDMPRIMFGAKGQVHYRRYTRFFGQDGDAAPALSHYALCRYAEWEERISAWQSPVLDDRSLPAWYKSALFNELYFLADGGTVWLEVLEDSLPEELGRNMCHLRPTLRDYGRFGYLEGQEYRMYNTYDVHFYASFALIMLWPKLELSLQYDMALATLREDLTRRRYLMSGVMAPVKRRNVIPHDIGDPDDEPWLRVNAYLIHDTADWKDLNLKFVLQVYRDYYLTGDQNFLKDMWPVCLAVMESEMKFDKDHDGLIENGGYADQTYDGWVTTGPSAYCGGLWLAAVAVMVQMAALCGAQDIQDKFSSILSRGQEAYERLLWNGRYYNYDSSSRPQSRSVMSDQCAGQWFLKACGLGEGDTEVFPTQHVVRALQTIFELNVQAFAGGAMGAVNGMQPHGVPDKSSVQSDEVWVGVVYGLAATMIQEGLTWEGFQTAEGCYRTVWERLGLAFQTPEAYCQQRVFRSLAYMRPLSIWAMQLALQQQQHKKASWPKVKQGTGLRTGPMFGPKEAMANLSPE
Experimental: Enzyme activity assays: All assays were performed with lysates of HEK293T cells or zebrafish larvae in 96‐well plates at 37 °C. Samples were diluted with McIlvaine buffer (150 mM citric acid‐Na2HPO4) to a final volume of 25 μL, at pH appropriate for each enzyme. Assays were performed by incubating the samples with 100 μL 4‐methylumbelliferyl‐β‐D‐glucoside substrates diluted in McIlvaine buffer (with 0.1 % (w/v) bovine serum albumin (BSA)) for a period of 30 min or 3 h. The substrate mixtures used for each enzyme were as follows: GBA, 3.75 mM 4‐MU‐β‐D‐glucopyranoside (Glycosynth, Warrington Cheshire, UK) at pH 5.2, supplemented with 0.2 % (w/v) sodium taurocholate, 0.1 % (v/v) Triton X‐100, 0.1 % (w/v) bovine serum albumin (BSA); GBA2, 3.75 mM 4 MU‐β‐D‐glucopyranoside at pH 5.8; GBA3, 3.75 mM 4‐MU‐β‐D‐glucopyranoside at pH 6.0. After stopping the enzyme reaction with 200 μL 1 M NaOH‐glycine (pH 10.3), 4‐methylumbelliferone fluorescence was measured with a fluorimeter LS55 (Perkin Elmer, Waltham, MA, USA) with λEX 366 nm and λEM 445 nm. Enzyme activities were determined by subtraction of background (measured for incubations without enzyme). IC50 values were determined exactly as earlier described.[36]
The IC50 values were determined using a fluorogenic enzymatic assay. For GBA, 3.16 ng (53 fmol) of rhGBA, (recombinant human GBA, Imiglucerase) obtained from Sanofi Genzyme (Cambridge, MA, USA), was prepared in 12.5 μL McIlvaine buffer (150 mM, pH 5.2) supplemented with 0.1 % (v/v) Triton X‐100, and 0.2 % (w/v) sodium taurocholate, 0.1 % (w/v) bovine serum albumin (BSA). […] In the case of GBA2 or GBA3, lysates of GBA/GBA2 KO HEK293T cells overexpressing GBA2 or GBA3, respectively where used. The enzymatic activity of GBA, GBA2 and GBA3 were measured with 4MU‐β‐D‐glucoside substrate as described above.

GBA2 [2] = biological target: T1, GBA2; test: Competitive ABPP (cABPP) with ABP 10 in HEK293T cell lysates, GBA2; assay type: biochemical; conditions: cell lysate, 30 min incubation
Experimental: In the first instance, the inhibitory potency of 1 and 2 for GBA, GBA2, and GBA3 was assessed by competitive activity‐based protein profiling (cABPP). For this, we first generated HEK293T cells that contain endogenous GBA and overexpress human GBA2 and GBA3.
Figure 3 Selectivity of compounds visualized by competitive ABPP labeling of β‐D‐glucosidase. Lysates of HEK293T cells expressing human GBA, GBA2 and GBA3 were incubated with compounds 1–5 at indicated concentrations for 30 min, following by cABPP with ABP 10.
ABP labeling procedure: Glycosidases were labeled with excess fluorescent ABPs at optimum conditions. ABP labeling was performed at 37 °C for 30 min for all materials (if not otherwise stated), in a total sample volume of 20–40 μL and 0.5–1 % DMSO concentration. GBA was labeled with 200 nM ABP 9 (pH 5.2, 0.1 % (v/v) Triton‐100, 0.2 % (w/v) sodium taurocholate), or labeled together with GBA2 using 200 nM β‐D‐glucose‐configured aziridine ABP 10 at pH 5.8, or labeling together with GBA2 and GBA3 using 200 nM β‐D‐glucose‐configured aziridine ABP 10 at pH 6.0. After ABP incubation, proteins were denatured by boiling the samples with 5× Laemmli buffer (50 % (v/v) 1 M Tris‐HCl, pH 6.8, 50 % (v/v) 100 % glycerol, 10 % (w/v) DTT, 10 % (w/v) SDS, 0.01 % (w/v) bromophenol blue) for 5 min at 98 °C, and separated by electrophoresis on 10 % (w/v) SDS‐PAGE gels running continuously at 90 V. Wet slab‐gels were scanned on fluorescence using the Typhoon FLA 9500 (GE Healthcare) at λEX 473 nm and λEM≥510 nm for green fluorescent ABP 8; and at λEX 635 nm and λEM≥665 nm for ABP 6, 9 and 10. ABP‐emitted fluorescence was quantified using ImageQuant software (GE Healthcare, Chicago, IL, USA) and curve‐fitted using Prism 8.0 (GraphPad Software). After fluorescence scanning, SDS‐PAGE gels were stained for total protein with Coomassie G250 and scanned on a ChemiDoc MP imager (Bio‐Rad, Hercules, CA, USA).[25]

[3] = incubation time 30 min, enzymatic assay, ±SD, n=3, read-out: In vitro apparent IC50 GBA2
[4] = 30 min incubation time, read-out: apparent IC50 GBA2
[5] = enzymatic assay performed for 3 h, n=3, read-out: In vitro apparent IC50 GBA2, 3 h

| SMILES | (Ratio) GBA2/GBA (GBA2 [1]; in vitro, 30 min) | IC50 (GBA2 [1]; [3]) [µM] | competition of ABP 10 labeling of GBA2 (GBA2 [2]) | IC50 (GBA2 [1]; [4]) [µM] | increase in GBA:GBA2 selectivity window compared to the conduritol analogue (13 or 14) (GBA2 [1]; in vitro 3 h) | GBA2/GBA ratio, 3 h (GBA2 [1]; in vitro 3 h) | IC50 (GBA2 [1]; [5]) [µM] | concentration competing ABP 10 labeling of GBA2 (GBA2 [2]) [µM] | increase in inhibitory activity towards GBA2 of aziridines relative to epoxide analogues (GBA2 [1]; in vitro 3 h) | potency against GBA2 compared to 2 (GBA2 [1]; in vitro, 30 min) |
| --- | --- | --- | --- | --- | --- | --- | --- | --- | --- | --- |
| CN1/C(=C/C=C/C=C/C2=[N+](CCCCCC(=O)NCc3cn(CCCCCCCCN4[C@H]5[C@H](O)[C@@H](O)[C@H](O)C[C@H]54)nn3)c3ccccc3C2(C)C)C(C)(C)c2ccccc21 (stereo partly drawn) [ABP 6] | 84 | 0.544 ± 0.11 | – | – | – | – | – | – | – | – |
| CN1/C(=C/C=C/C=C/C2=[N+](CCCCCC(=O)NCc3cn(C[C@@H]4[C@@H](O)[C@H](O)[C@@H](O)[C@@H]5O[C@H]45)nn3)c3ccccc3C2(C)C)C(C)(C)c2ccccc21 [ABP 9, reference compound] | > 111 | – | – | – | – | – | – | – | – | – |
| O[C@@H]1[C@@H](O)[C@H](O)C[C@H]2O[C@@H]12 [compound 1, xylo‐cyclophellitol] | >19 | > 50 | but not that of GBA2 or GBA3 | > 25 | seven‐fold increase | 272 | 122 ± 30.2 | – | – | – |
| O[C@@H]1[C@@H](O)[C@H](O)C[C@H]2N[C@@H]12 [compound 2, β‐D‐xylo‐Cyclophellitol aziridine] | 44 | 31.6 ± 0.926 | – | > 25 | three‐fold increase | 22 | 5.31 ± 0.12 | 100 | 10–20 fold | – |
| OC[C@@H]1[C@@H](O)[C@H](O)[C@@H](O)[C@@H]2O[C@H]12 [compound 3, cyclophellitol] | 0.4 | 0.148 ± 0.00751 | – | – | – | – | – | 0.1 to 1 | – | – |
| OC[C@@H]1[C@@H](O)[C@H](O)[C@@H](O)[C@@H]2N[C@H]12 [compound 4, cyclophellitol aziridine, reference compound] | 0.8 | 0.279 ± 0.0445 | – | – | – | – | – | 0.1 to 1 | – | – |
| [N-]=[N+]=NCCCCCCCCN1[C@H]2[C@H](O)[C@@H](O)[C@H](O)C[C@H]21 (stereo partly drawn) [compound 5] | 5317 | 6.38 ± 1.15 | – | – | – | – | – | – | – | five‐fold higher |

Reference: publication PMC8596838, “Xylose‐Configured Cyclophellitols as Selective Inhibitors for Glucocerebrosidase” (Chembiochem, 2021)
